Assay results reported in EP0454444A1, “Glutarimide derivatives and herbicides” (NISSAN CHEMICAL INDUSTRIES LTD., priority 1990, dated 1991).

Assays:
Assay in all cases: Herbicidal effect test by soil treatment
Type in all cases: in vivo
corn (Zea mays) = conditions: crop plant, three weeks after spraying
Description: (§1) In a plastic box of 15 cm length, 22 cm width and 6 cm depth, there was placed a sterilized dilvial soil, and seeds of barnyardgrass (Echinochloa crusgalli), large crabgrass (Digitaria adscendens), annual sedge (Cyperus microiria), black nightshade (Solanum nigrum L.), hairly galinosoga (Galinsoga ciliat), rorippa ssp. (Rorippa atrovirens), rice (Oryza sativa), corn (Zea mays), wheat (Triticum aestivum), soybean (Glysine max) and cotton (Gossypium herbaceum) were sown mixedly. After covering soil to about 1 cm over the seeds, herbicides were sprayed evenly on the soil surface to predetermined proportions of the active ingredient In spraying, the wettable powder, emulsifiable concentrate, dry flowable or flowable in the above formulation examples were diluted with water and sprayed over the entire surface by means of a small sprayer. Three weeks after spraying, the herbicidal effect on crop plants including rice, corn, wheat, soybean, cotton and various kinds of weeds were examined according to the judgement criteria shown below. Judgement criteria
(§2) The above growth control rates are determined by measuring the top fresh weights of the treated plants and those of the non-treated plants, and culculated from the following formula: [formula]

[1] = test system: hairly galinosoga (Galinsoga ciliat); conditions: three weeks after spraying
Description: as §1, §2

[2] = test system: large crabgrass (Digitaria adscendens); conditions: three weeks after spraying
Description: as §1, §2

[3] = test system: barnyardgrass (Echinochloa crusgalli); conditions: three weeks after spraying
Description: as §1, §2

rice (Oryza sativa) = conditions: crop plant, three weeks after spraying
Description: as §1, §2

soybean (Glysine max) = conditions: crop plant, three weeks after spraying
Description: as §1, §2

[4] = test system: cotton (Gossypium herbaceum); conditions: crop plant, three weeks after spraying
Description: as §1, §2

[5] = test system: annual sedge (Cyperus microiria); conditions: three weeks after spraying
Description: as §1, §2

[6] = test system: wheat (Triticum aestivum); conditions: crop plant, three weeks after spraying
Description: as §1, §2

[7] = test system: black nightshade (Solanum nigrum L.); conditions: three weeks after spraying
Description: as §1, §2

[8] = test system: rorippa ssp. (Rorippa atrovirens); conditions: three weeks after spraying
Description: as §1, §2

## O=C1COc2cc(F)c(N3C(=O)CC(C(F)(F)F)CC3=O)cc2N1Cc1ccccc1 [1-27]
Corn (Zea mays); application amount 0.4 g/a
  herbicidal effect, T (Zea mays): 0 (Growth control rates of less than 5% (substantially no effect))
Corn (Zea mays); application amount 0.8 g/a
  herbicidal effect, T (Zea mays): 1 (Growth control rates of 5 to 20%)
Corn (Zea mays); application amount 1.6 g/a
  herbicidal effect, T (Zea mays): 4 (Growth control rates of 70 to 90%)
[1]; application amount 0.4 g/a
  herbicidal effect, D (Galinsoga ciliat): 5 (Growth control,rates of more than 90% (almost completely withered))
[1]; application amount 0.8 g/a
  herbicidal effect, D (Galinsoga ciliat): 5 (Growth control,rates of more than 90% (almost completely withered))
[1]; application amount 1.6 g/a
  herbicidal effect, D (Galinsoga ciliat): 5 (Growth control,rates of more than 90% (almost completely withered))
[2]; application amount 0.4 g/a
  herbicidal effect, M (Digitaria adscendens): 5 (Growth control,rates of more than 90% (almost completely withered))
[2]; application amount 0.8 g/a
  herbicidal effect, M (Digitaria adscendens): 5 (Growth control,rates of more than 90% (almost completely withered))
[2]; application amount 1.6 g/a
  herbicidal effect, M (Digitaria adscendens): 5 (Growth control,rates of more than 90% (almost completely withered))
[3]; application amount 0.4 g/a
  herbicidal effect, N (Echinochloa crusgalli): 5 (Growth control,rates of more than 90% (almost completely withered))
[3]; application amount 0.8 g/a
  herbicidal effect, N (Echinochloa crusgalli): 5 (Growth control,rates of more than 90% (almost completely withered))
[3]; application amount 1.6 g/a
  herbicidal effect, N (Echinochloa crusgalli): 5 (Growth control,rates of more than 90% (almost completely withered))
Rice (Oryza sativa); application amount 0.4 g/a
  herbicidal effect, R (Oryza sativa): 2 (Growth control rates of 20 to 40%)
Rice (Oryza sativa); application amount 0.8 g/a
  herbicidal effect, R (Oryza sativa): 3 (Growth control rates of 40 to 70%)
Rice (Oryza sativa); application amount 1.6 g/a
  herbicidal effect, R (Oryza sativa): 4 (Growth control rates of 70 to 90%)
Soybean (Glysine max); application amount 0.4 g/a
  herbicidal effect, S (Glysine max): 0 (Growth control rates of less than 5% (substantially no effect))
Soybean (Glysine max); application amount 0.8 g/a
  herbicidal effect, S (Glysine max): 0 (Growth control rates of less than 5% (substantially no effect))
Soybean (Glysine max); application amount 1.6 g/a
  herbicidal effect, S (Glysine max): 1 (Growth control rates of 5 to 20%)
[4]; application amount 0.4 g/a
  herbicidal effect, C (Gossypium herbaceum): 0 (Growth control rates of less than 5% (substantially no effect))
[4]; application amount 0.8 g/a
  herbicidal effect, C (Gossypium herbaceum): 1 (Growth control rates of 5 to 20%)
[4]; application amount 1.6 g/a
  herbicidal effect, C (Gossypium herbaceum): 2 (Growth control rates of 20 to 40%)
[5]; application amount 0.4 g/a
  herbicidal effect, K (Cyperus microiria): 5 (Growth control,rates of more than 90% (almost completely withered))
[5]; application amount 0.8 g/a
  herbicidal effect, K (Cyperus microiria): 5 (Growth control,rates of more than 90% (almost completely withered))
[5]; application amount 1.6 g/a
  herbicidal effect, K (Cyperus microiria): 5 (Growth control,rates of more than 90% (almost completely withered))
[6]; application amount 0.4 g/a
  herbicidal effect, W (Triticum vulgare): 2 (Growth control rates of 20 to 40%)
[6]; application amount 0.8 g/a
  herbicidal effect, W (Triticum vulgare): 4 (Growth control rates of 70 to 90%)
[6]; application amount 1.6 g/a
  herbicidal effect, W (Triticum vulgare): 5 (Growth control,rates of more than 90% (almost completely withered))
[7]; application amount 0.4 g/a
  herbicidal effect, H (Solanum nigrum L.): 5 (Growth control,rates of more than 90% (almost completely withered))
[7]; application amount 0.8 g/a
  herbicidal effect, H (Solanum nigrum L.): 5 (Growth control,rates of more than 90% (almost completely withered))
[7]; application amount 1.6 g/a
  herbicidal effect, H (Solanum nigrum L.): 5 (Growth control,rates of more than 90% (almost completely withered))
[8]; application amount 0.4 g/a
  herbicidal effect, I (Rorippa indica): 5 (Growth control,rates of more than 90% (almost completely withered))
[8]; application amount 0.8 g/a
  herbicidal effect, I (Rorippa indica): 5 (Growth control,rates of more than 90% (almost completely withered))
[8]; application amount 1.6 g/a
  herbicidal effect, I (Rorippa indica): 5 (Growth control,rates of more than 90% (almost completely withered))

## O=C1COc2cc(F)c(N3C(=O)CC(C(F)(F)F)CC3=O)cc2N1CC1CCCCC1 [1-28]
Corn (Zea mays); application amount 1.6 g/a
  herbicidal effect, T (Zea mays): 0 (Growth control rates of less than 5% (substantially no effect))
[1]; application amount 1.6 g/a
  herbicidal effect, D (Galinsoga ciliat): 5 (Growth control,rates of more than 90% (almost completely withered))
[2]; application amount 1.6 g/a
  herbicidal effect, M (Digitaria adscendens): 5 (Growth control,rates of more than 90% (almost completely withered))
[3]; application amount 1.6 g/a
  herbicidal effect, N (Echinochloa crusgalli): 5 (Growth control,rates of more than 90% (almost completely withered))
Rice (Oryza sativa); application amount 1.6 g/a
  herbicidal effect, R (Oryza sativa): 0 (Growth control rates of less than 5% (substantially no effect))
Soybean (Glysine max); application amount 1.6 g/a
  herbicidal effect, S (Glysine max): 0 (Growth control rates of less than 5% (substantially no effect))
[4]; application amount 1.6 g/a
  herbicidal effect, C (Gossypium herbaceum): 0 (Growth control rates of less than 5% (substantially no effect))
[5]; application amount 1.6 g/a
  herbicidal effect, K (Cyperus microiria): 5 (Growth control,rates of more than 90% (almost completely withered))
[6]; application amount 1.6 g/a
  herbicidal effect, W (Triticum vulgare): 2 (Growth control rates of 20 to 40%)
[7]; application amount 1.6 g/a
  herbicidal effect, H (Solanum nigrum L.): 5 (Growth control,rates of more than 90% (almost completely withered))
[8]; application amount 1.6 g/a
  herbicidal effect, I (Rorippa indica): 5 (Growth control,rates of more than 90% (almost completely withered))

## CCOC(=O)c1cc(N2C(=O)CCC(C)C2=O)c(F)cc1Cl (centres unmarked) [1-12]
Corn (Zea mays); application amount 6.3 g/a
  herbicidal effect, T (Zea mays): 0 (Growth control rates of less than 5% (substantially no effect))
[1]; application amount 6.3 g/a
  herbicidal effect, D (Galinsoga ciliat): 4 (Growth control rates of 70 to 90%)
[2]; application amount 6.3 g/a
  herbicidal effect, M (Digitaria adscendens): 5 (Growth control,rates of more than 90% (almost completely withered))
[3]; application amount 6.3 g/a
  herbicidal effect, N (Echinochloa crusgalli): 2 (Growth control rates of 20 to 40%)
Rice (Oryza sativa); application amount 6.3 g/a
  herbicidal effect, R (Oryza sativa): 2 (Growth control rates of 20 to 40%)
Soybean (Glysine max); application amount 6.3 g/a
  herbicidal effect, S (Glysine max): 0 (Growth control rates of less than 5% (substantially no effect))
[4]; application amount 6.3 g/a
  herbicidal effect, C (Gossypium herbaceum): 0 (Growth control rates of less than 5% (substantially no effect))
[5]; application amount 6.3 g/a
  herbicidal effect, K (Cyperus microiria): 5 (Growth control,rates of more than 90% (almost completely withered))
[6]; application amount 6.3 g/a
  herbicidal effect, W (Triticum vulgare): 1 (Growth control rates of 5 to 20%)
[7]; application amount 6.3 g/a
  herbicidal effect, H (Solanum nigrum L.): 2 (Growth control rates of 20 to 40%)
[8]; application amount 6.3 g/a
  herbicidal effect, I (Rorippa indica): 5 (Growth control,rates of more than 90% (almost completely withered))

## CC1CC(=O)N(c2cc3c(cc2F)OCC(=O)N3)C(=O)C1 [1-22]
Corn (Zea mays); application amount 1.6 g/a
  herbicidal effect, T (Zea mays): 0 (Growth control rates of less than 5% (substantially no effect))
[1]; application amount 1.6 g/a
  herbicidal effect, D (Galinsoga ciliat): 5 (Growth control,rates of more than 90% (almost completely withered))
[2]; application amount 1.6 g/a
  herbicidal effect, M (Digitaria adscendens): 5 (Growth control,rates of more than 90% (almost completely withered))
[3]; application amount 1.6 g/a
  herbicidal effect, N (Echinochloa crusgalli): 5 (Growth control,rates of more than 90% (almost completely withered))
Rice (Oryza sativa); application amount 1.6 g/a
  herbicidal effect, R (Oryza sativa): 0 (Growth control rates of less than 5% (substantially no effect))
Soybean (Glysine max); application amount 1.6 g/a
  herbicidal effect, S (Glysine max): 0 (Growth control rates of less than 5% (substantially no effect))
[4]; application amount 1.6 g/a
  herbicidal effect, C (Gossypium herbaceum): 0 (Growth control rates of less than 5% (substantially no effect))
[5]; application amount 1.6 g/a
  herbicidal effect, K (Cyperus microiria): 5 (Growth control,rates of more than 90% (almost completely withered))
[6]; application amount 1.6 g/a
  herbicidal effect, W (Triticum vulgare): 0 (Growth control rates of less than 5% (substantially no effect))
[7]; application amount 1.6 g/a
  herbicidal effect, H (Solanum nigrum L.): 5 (Growth control,rates of more than 90% (almost completely withered))
[8]; application amount 1.6 g/a
  herbicidal effect, I (Rorippa indica): 5 (Growth control,rates of more than 90% (almost completely withered))

## CCOC(=O)Nc1cc(N2C(=O)CC(C(F)(F)F)CC2=O)c(F)cc1Cl [1-35]
Corn (Zea mays); application amount 1.6 g/a
  herbicidal effect, T (Zea mays): 0 (Growth control rates of less than 5% (substantially no effect))
[1]; application amount 1.6 g/a
  herbicidal effect, D (Galinsoga ciliat): 5 (Growth control,rates of more than 90% (almost completely withered))
[2]; application amount 1.6 g/a
  herbicidal effect, M (Digitaria adscendens): 5 (Growth control,rates of more than 90% (almost completely withered))
[3]; application amount 1.6 g/a
  herbicidal effect, N (Echinochloa crusgalli): 4 (Growth control rates of 70 to 90%)
Rice (Oryza sativa); application amount 1.6 g/a
  herbicidal effect, R (Oryza sativa): 0 (Growth control rates of less than 5% (substantially no effect))
Soybean (Glysine max); application amount 1.6 g/a
  herbicidal effect, S (Glysine max): 0 (Growth control rates of less than 5% (substantially no effect))
[4]; application amount 1.6 g/a
  herbicidal effect, C (Gossypium herbaceum): 0 (Growth control rates of less than 5% (substantially no effect))
[5]; application amount 1.6 g/a
  herbicidal effect, K (Cyperus microiria): 5 (Growth control,rates of more than 90% (almost completely withered))
[6]; application amount 1.6 g/a
  herbicidal effect, W (Triticum vulgare): 1 (Growth control rates of 5 to 20%)
[7]; application amount 1.6 g/a
  herbicidal effect, H (Solanum nigrum L.): 5 (Growth control,rates of more than 90% (almost completely withered))
[8]; application amount 1.6 g/a
  herbicidal effect, I (Rorippa indica): 5 (Growth control,rates of more than 90% (almost completely withered))
